# Laboratory results taken from patent US4005076A, “Hydrazones of 3-formylrifamycin SV” (Gruppo Lepetit S.p.A., priority 1971, dated 1977).
# What was measured:
# [1] = system: Staphylococcus aureus strain which is resistant to rifampicin (Staph. aureus Tour); assay: in vitro minimal inhibitory concentration against rifampicin-resistant Staphylococcus aureus strain; type: cell-based; details: Staphylococcus aureus, read-out: Minimal inhibitory concentration
# Protocol: In particular, compounds illustrative of the invention at concentrations of about 10 to 20 μg/ml or less inhibit the growth of a Staph. aureus Tour strain resistant to rifampicin.
# One of the most important characteristics of the new hydrazones is their activity against rifampicin-resistant Staphylococcus aureus strains. Rifampicin, that is 3-(4-methyl-1-piperazinyl)iminomethylrifamycin SV, disclosed in U.S. Pat. No. 3,342,810, is the most known and widely used rifamycin derivative in therapeutic practice.
# The data of the new compounds are compared with those of representative hydrazones disclosed in U.S. Pat. No. 3,342,810.
# [2] = system: mouse embryo DNA-polymerase I (ME-DNA-P1); assay: effect on mouse embryo DNA-polymerase I; type: biochemical; details: activated Calf-Thymus DNA
# From the text: (§1) Oligo dT.Poly rA. ME-DNA-P1 and ME-DNA-p2 : activated
# [3] = molecular target: T1, mouse embryo RNA-polymerase II (ME-RNA-P2) (Mus musculus, UniProt P08775+Q8CFI7); assay: effect on mouse embryo RNA-polymerase II; type: biochemical; details: Single Stranded Calf-Thymus DNA; for remaining activity at 10 µg: 10μg, read-out: % Control Activity of ME-RNA-P2 at 10μg; for remaining activity at 100 µg: 100μg, read-out: % Control Activity of ME-RNA-P2 at 100μg
# T1 construct: mouse embryo RNA-polymerase II (ME-RNA-P2); endogenous in cells; host or cells: mouse embryo cells
# From the text: (§2) Calf-Thymus DNA. Me-RNA-P1 and ME-RNA-P2 : Single Stranded
# [4] = molecular target: T2, mouse embryo RNA-polymerase I (ME-RNA-P1) (Mus musculus, UniProt O35134+P70700); assay: effect on mouse embryo RNA-polymerase I; type: biochemical; details: Single Stranded Calf-Thymus DNA; for remaining activity at 10 µg: 10μg, read-out: % Control Activity of ME-RNA-P1 at 10μg; for remaining activity at 100 µg: 100μg, read-out: % Control Activity of ME-RNA-P1 at 100μg
# T2 construct: mouse embryo RNA-polymerase I (ME-RNA-P1); endogenous in cells; host or cells: mouse embryo cells
# From the text: as §2
# [5] = system: mouse embryo DNA-polymerase II (ME-DNA-P2); assay: effect on mouse embryo DNA-polymerase II; type: biochemical; details: activated Calf-Thymus DNA
# From the text: as §1
# [6] = molecular target: T3, sarcoma virus DNA-polymerases (SSV-DNA-P) (Woolly monkey sarcoma virus, UniProt P03359); assay: effect on activity of SSV-polymerase; type: biochemical; details: template Oligo dT.Poly rA
# T3 construct: sarcoma virus DNA-polymerases (SSV-DNA-P)
# From the text: Templates used in the Enzymatic Assays were the following: SSV-DNA-P: […]
# T3 sequence (P03359 642-1310): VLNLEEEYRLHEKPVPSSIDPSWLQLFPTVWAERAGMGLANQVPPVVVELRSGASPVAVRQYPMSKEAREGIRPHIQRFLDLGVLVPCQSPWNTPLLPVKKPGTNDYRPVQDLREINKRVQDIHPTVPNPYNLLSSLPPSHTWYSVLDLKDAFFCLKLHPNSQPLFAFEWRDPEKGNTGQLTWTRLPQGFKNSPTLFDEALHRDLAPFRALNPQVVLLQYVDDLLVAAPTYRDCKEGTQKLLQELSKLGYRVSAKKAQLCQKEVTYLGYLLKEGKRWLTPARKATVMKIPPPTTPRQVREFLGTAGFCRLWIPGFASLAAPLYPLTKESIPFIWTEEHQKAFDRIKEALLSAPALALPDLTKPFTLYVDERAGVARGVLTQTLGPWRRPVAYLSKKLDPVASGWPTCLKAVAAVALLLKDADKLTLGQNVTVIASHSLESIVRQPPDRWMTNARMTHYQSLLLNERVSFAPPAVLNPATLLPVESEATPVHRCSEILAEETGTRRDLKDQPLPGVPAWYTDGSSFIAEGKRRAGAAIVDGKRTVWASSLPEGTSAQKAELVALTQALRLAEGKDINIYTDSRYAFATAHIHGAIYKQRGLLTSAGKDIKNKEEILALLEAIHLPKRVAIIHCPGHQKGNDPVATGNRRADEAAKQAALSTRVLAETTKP
smiles,measurement,setting,value
COC1C=COC2(C)Oc3c(C)c(O)c4c(O)c(c(C=NNC5CCCC5)c(O)c4c3C2=O)NC(=O)C(C)=CC=CC(C)C(O)C(C)C(O)C(C)C(OC(C)=O)C1C (centres unmarked) [Example 1],MIC,[1],20 µg/mL
COC1C=COC2(C)Oc3c(C)c(O)c4c(O)c(c(C=NNC5CCCCC5)c(O)c4c3C2=O)NC(=O)C(C)=CC=CC(C)C(O)C(C)C(O)C(C)C(OC(C)=O)C1C (centres unmarked) [Example 2],MIC,[1],20 µg/mL
CCCCCN(C)N=Cc1c2c(O)c3c(O)c(C)c4c(c3c1O)C(=O)C(C)(OC=CC(OC)C(C)C(OC(C)=O)C(C)C(O)C(C)C(O)C(C)C=CC=C(C)C(=O)N2)O4 (centres unmarked) [Example 3],MIC,[1],10 µg/mL
COC1C=COC2(C)Oc3c(C)c(O)c4c(O)c(c(C=NNc5ccnc6c(C(F)(F)F)cccc56)c(O)c4c3C2=O)NC(=O)C(C)=CC=CC(C)C(O)C(C)C(O)C(C)C(OC(C)=O)C1C (centres unmarked) [Example 22],MIC,[1],50 µg/mL
COC1C=COC2(C)Oc3c(C)c(O)c4c(O)c(c(C=NNc5cc(-c6ccccc6)nc6cc(C(F)(F)F)ccc56)c(O)c4c3C2=O)NC(=O)C(C)=CC=CC(C)C(O)C(C)C(O)C(C)C(OC(C)=O)C1C (centres unmarked) [Example 23],MIC,[1],20 µg/mL
COC1C=COC2(C)Oc3c(C)c(O)c4c(O)c(c(C=NNc5cc(C)c6cccc(C)c6n5)c(O)c4c3C2=O)NC(=O)C(C)=CC=CC(C)C(O)C(C)C(O)C(C)C(OC(C)=O)C1C (centres unmarked) [Example 25],MIC,[1],20 µg/mL
COC1C=COC2(C)Oc3c(C)c(O)c4c(O)c(c(C=NNc5cccc(C)c5)c(O)c4c3C2=O)NC(=O)C(C)=CC=CC(C)C(O)C(C)C(O)C(C)C(OC(C)=O)C1C (centres unmarked) [Example 26],MIC,[1],20 µg/mL
COc1ccccc1NN=Cc1c2c(O)c3c(O)c(C)c4c(c3c1O)C(=O)C(C)(OC=CC(OC)C(C)C(OC(C)=O)C(C)C(O)C(C)C(O)C(C)C=CC=C(C)C(=O)N2)O4 (centres unmarked) [Example 33],MIC,[1],50 µg/mL
COC1C=COC2(C)Oc3c(C)c(O)c4c(O)c(c(C=NNCCOc5c(Cl)cc(N)cc5Cl)c(O)c4c3C2=O)NC(=O)C(C)=CC=CC(C)C(O)C(C)C(O)C(C)C(OC(C)=O)C1C (centres unmarked) [Example 34],MIC,[1],50 µg/mL
COC1C=COC2(C)Oc3c(C)c(O)c4c(O)c(c(C=NNc5ccccc5[N+](=O)[O-])c(O)c4c3C2=O)NC(=O)C(C)=CC=CC(C)C(O)C(C)C(O)C(C)C(OC(C)=O)C1C (centres unmarked) [Example 35],MIC,[1],20 µg/mL
COC1C=COC2(C)Oc3c(C)c(O)c4c(O)c(c(C=NNc5cccc([N+](=O)[O-])c5)c(O)c4c3C2=O)NC(=O)C(C)=CC=CC(C)C(O)C(C)C(O)C(C)C(OC(C)=O)C1C (centres unmarked) [Example 36],MIC,[1],50 µg/mL
COC1C=COC2(C)Oc3c(C)c(O)c4c(O)c(c(C=NNc5ccc(F)cc5)c(O)c4c3C2=O)NC(=O)C(C)=CC=CC(C)C(O)C(C)C(O)C(C)C(OC(C)=O)C1C (centres unmarked) [Example 37],MIC,[1],50 µg/mL
COC1C=COC2(C)Oc3c(C)c(O)c4c(O)c(c(C=NNc5ccccc5C)c(O)c4c3C2=O)NC(=O)C(C)=CC=CC(C)C(O)C(C)C(O)C(C)C(OC(C)=O)C1C (centres unmarked) [Example 38],MIC,[1],20 µg/mL
COC1C=COC2(C)Oc3c(C)c(O)c4c(O)c(c(C=NNc5c(Cl)cc(Cl)cc5Cl)c(O)c4c3C2=O)NC(=O)C(C)=CC=CC(C)C(O)C(C)C(O)C(C)C(OC(C)=O)C1C (centres unmarked) [Example 39],MIC,[1],5 µg/mL
COC1C=COC2(C)Oc3c(C)c(O)c4c(O)c(c(C=NNc5c(C)cc(C(C)(C)C)cc5C)c(O)c4c3C2=O)NC(=O)C(C)=CC=CC(C)C(O)C(C)C(O)C(C)C(OC(C)=O)C1C (centres unmarked) [Example 41],MIC,[1],20 µg/mL
COC1C=COC2(C)Oc3c(C)c(O)c4c(O)c(c(C=NN(C)Cc5ccc(-c6ccccc6)cc5)c(O)c4c3C2=O)NC(=O)C(C)=CC=CC(C)C(O)C(C)C(O)C(C)C(OC(C)=O)C1C (centres unmarked) [Example 42],MIC,[1],5 µg/mL
"COC1C=COC2(C)Oc3c(C)c(O)c4c(O)c(c(C=NNc5cccc(C(F)(F)F)c5)c(O)c4c3C2=O)NC(=O)C(C)=CC=CC(C)C(O)C(C)C(O)C(C)C(OC(C)=O)C1C (centres unmarked) [Example 43, 3-Formylrifamycin SV: hydrazone of ((3-trifluoromethyl)-phenyl) hydrazine]",MIC,[1],10 µg/mL
CCCCCN(CCCCC)N=Cc1c2c(O)c3c(O)c(C)c4c(c3c1O)C(=O)C(C)(OC=CC(OC)C(C)C(OC(C)=O)C(C)C(O)C(C)C(O)C(C)C=CC=C(C)C(=O)N2)O4 (centres unmarked) [Example 46],MIC,[1],1 µg/mL
COC1C=COC2(C)Oc3c(C)c(O)c4c(O)c(c(C=NNC56CC7CC(CC(C7)C5)C6)c(O)c4c3C2=O)NC(=O)C(C)=CC=CC(C)C(O)C(C)C(O)C(C)C(OC(C)=O)C1C (centres unmarked) [Example 47],MIC,[1],5 µg/mL
"CCN(CC)N=Cc1c2c(O)c3c(O)c(C)c4c(c3c1O)C(=O)C(C)(OC=CC(OC)C(C)C(OC(C)=O)C(C)C(O)C(C)C(O)C(C)C=CC=C(C)C(=O)N2)O4 (centres unmarked) [N,N-Diethylhydrazone of 3-formylrifamycin SV]",MIC,[1],> 100 µg/mL
CNN=Cc1c2c(O)c3c(O)c(C)c4c(c3c1O)C(=O)C(C)(OC=CC(OC)C(C)C(OC(C)=O)C(C)C(O)C(C)C(O)C(C)C=CC=C(C)C(=O)N2)O4 (centres unmarked) [N-Methylhydrazone of 3-formylrifamycin SV],MIC,[1],> 100 µg/mL
COC1C=COC2(C)Oc3c(C)c(O)c4c(O)c(c(C=NNc5ccccc5)c(O)c4c3C2=O)NC(=O)C(C)=CC=CC(C)C(O)C(C)C(O)C(C)C(OC(C)=O)C1C (centres unmarked) [Phenylhydrazone of 3-formylrifamycin SV],MIC,[1],100 µg/mL
COC1C=COC2(C)Oc3c(C)c(O)c4c(O)c(c(C=NNc5ccc(C(=O)O)cc5)c(O)c4c3C2=O)NC(=O)C(C)=CC=CC(C)C(O)C(C)C(O)C(C)C(OC(C)=O)C1C (centres unmarked) [p-Carboxyphenylhydrazone of 3-formylrifamycin SV],MIC,[1],> 100 µg/mL
COC1C=COC2(C)Oc3c(C)c(O)c4c(O)c(cc(OCC(=O)O)c4c3C2=O)NC(=O)C(C)=CC=CC(C)C(O)C(C)C(O)C(C)C(OC(C)=O)C1C (centres unmarked) [rifamycin B],% Control Activity of ME-DNA-P1 at 10μg,[2],103%
same,% Control Activity of ME-DNA-P1 at 100μg,[2],81%
same,remaining activity at 10 µg,[3],102%
same,remaining activity at 100 µg,[3],95%
same,remaining activity at 10 µg,[4],76%
same,remaining activity at 100 µg,[4],85%
same,% Control Activity of ME-DNA-P2 at 10μg,[5],46%
same,% Control Activity of ME-DNA-P2 at 100μg,[5],4%
same,% Control Activity of SSV-DNA-P at 5μg,[6],96%
same,% Control Activity of SSV-DNA-P at 10μg,[6],104%
same,% Control Activity of SSV-DNA-P at 100μg,[6],75%
COC1C=COC2(C)Oc3c(C)c(O)c4c(c3C2=O)C2(C=C(NC(=O)C(C)=CC=CC(C)C(O)C(C)C(O)C(C)C(OC(C)=O)C1C)C4=O)OCC(=O)O2 (centres unmarked) [rifamycin O],% Control Activity of ME-DNA-P1 at 10μg,[2],92%
same,% Control Activity of ME-DNA-P1 at 100μg,[2],65%
same,remaining activity at 10 µg,[3],93%
same,remaining activity at 100 µg,[3],65%
same,remaining activity at 10 µg,[4],77%
same,remaining activity at 100 µg,[4],75%
same,% Control Activity of ME-DNA-P2 at 10μg,[5],97%
same,% Control Activity of ME-DNA-P2 at 100μg,[5],5%
same,% Control Activity of SSV-DNA-P at 5μg,[6],100%
same,% Control Activity of SSV-DNA-P at 10μg,[6],98%
same,% Control Activity of SSV-DNA-P at 100μg,[6],83%
CO[C@H]1/C=C/O[C@@]2(C)Oc3c(C)c(O)c4c(O)c(cc(O)c4c3C2=O)NC(=O)/C(C)=C\C=C\[C@H](C)[C@H](O)[C@@H](C)[C@@H](O)[C@@H](C)[C@H](OC(C)=O)[C@@H]1C [rifamycin SV],% Control Activity of ME-DNA-P1 at 5μg,[2]; 5μg,91%
same,% Control Activity of ME-DNA-P1 at 10μg,[2],95%
same,% Control Activity of ME-DNA-P1 at 100μg,[2],105%
same,remaining activity at 5 µg,"[3]; 5μg, read-out: % Control Activity of ME-RNA-P2 at 5μg",89%
same,remaining activity at 10 µg,[3],87%
same,remaining activity at 100 µg,[3],82%
same,remaining activity at 10 µg,[4],84%
same,remaining activity at 100 µg,[4],106%
same,% Control Activity of ME-DNA-P2 at 5μg,[5]; 5μg,94%
same,% Control Activity of ME-DNA-P2 at 10μg,[5],100%
same,% Control Activity of ME-DNA-P2 at 100μg,[5],72%
same,% Control Activity of SSV-DNA-P at 5μg,[6],105%
same,% Control Activity of SSV-DNA-P at 10μg,[6],75%
same,% Control Activity of SSV-DNA-P at 100μg,[6],61%
